Counter-ions that a name gives are not always drawn.
Columns and labels:
human 5-HT2B receptor [1] = biological target: T1, human 5-HT2B receptor (Homo sapiens, UniProt P41595); assay: 5-HT2B agonist effect, IP1 production (HTRF) in transfected CHO cells; assay type: cell-based; conditions: IP1 production vs 1 μM 5-HT control
T1 construct: expressed in transfected cells; host or cells: CHO cells
Method: (§1) Evaluation of the activity of CBD and 7-OH-CBD at the human 5-HT2B receptor was undertaken in transfected CHO cells. Such activity as either an agonist or antagonist was determined by measuring their effects IP1 production using the HTRF detection method.
(§2) Cells were suspended in a buffer containing 10 mM Hepes/NaOH (pH 7.4), 4.2 mM KCl, 146 mM NaCl, 1 mM CaCl2), 0.5 mM MgCl2, 5.5 mM glucose and 50 mM LiCl, then distributed in microplates at a density of 4.104 cells/well and incubated for 30 min at 37° C. in the presence of buffer (basal control), test compound or reference agonist.
For stimulated control measurement, separate assay wells contain 1 μM 5-HT. Following incubation, the cells are lysed and the fluorescence acceptor (D2-labeled IP1) and fluorescence donor (anti-IP1 antibody labelled with europium cryptate) are added.
After 60 min at room temperature, the fluorescence transfer is measured at A ex=337 nm and A em=620 and 665 nm using a microplate reader (Rubystar, BMG).
(§3) The IP1 concentration is determined by dividing the signal measured at 665 nm by that measured at 620 nm (ratio).
The results are expressed as a percent of the control response to 1 μM 5-HT. The standard reference agonist is 5-HT, which is tested in each experiment at several concentrations to generate a concentration-response curve from which its EC50 value is calculated.

human 5-HT2B receptor [2] = biological target: T1, human 5-HT2B receptor; assay: 5-HT2B antagonist effect, IP1 production (HTRF) in transfected CHO cells; assay type: cell-based; conditions: antagonism of 30 nM 5-HT
Method: as §1
as §2, with “preincubated” for “incubated”, “5” for “30”, “room temperature” for “37° C.”, “antagonist.” for “agonist.”
Thereafter, the reference agonist 5-HT is added at a final concentration of 30 nM. […] Following 30 min incubation at 37° C., the cells are lysed and the fluorescence acceptor (D2-labeled IP1) and fluorescence donor (anti-IP1 antibody labelled with europium cryptate) are added.
After 60 min at room temperature, the fluorescence transfer is measured at ex=337 nm and λ em=620 and λ 665 nm using a microplate reader (Rubystar, BMG).
as §3
The results are expressed as a percent inhibition of the control response to 30 nM 5-HT. […]

[3] = Plasma concentrations in human clinical trials in epilepsy; assay type: in vivo
[4] = tested on: MES-induced tonic seizures; assay: Maximal electroshock seizure (MES) test in mice with isobolographic/CalcuSyn DDI analysis; assay type: in vivo, mouse; conditions: for Dose Reduction Index (DRI): in CBD/FEN combination vs drug alone; for doses with statistically significant (p<0.05) anticonvulsant effect vs vehicle: Experiment A, single drug; for doses with statistically significant (p<0.05) anticonvulsant effect vs vehicle / effect on incidence of MES vs vehicle, drug alone: i.p.; for doses with statistically significant (p<0.05) anticonvulsant effect vs vehicle / ED50: mouse MES; for effect on incidence of MES vs vehicle, drug alone: Experiment B, low doses alone; for ED50: median-effect curves, drug alone, read-out: potency (Dm or ED50)
Method: The study was performed in two phases. […] Secondly, (Experiment B), drug-drug interactions (DDI) and anticonvulsant activities for CBD/FEN in combination were determined.
Experiment A was performed using 160 male, C57Bl6 mice, weighing between 20.1-30.1 g, and Experiment B was performed using 126 male, C57Bl6 mice, weighing between 19.2-26.1 g, purchased from a licensed breeder (Charles River, UK).
The following drugs were used in this study: Purified botanical CBD provided by GW Research Ltd., fenfluramine hydrochloride (FEN) purchased from Sigma Merck. The control vehicle used was 1:1:18 (5% ethanol, 5% Kolliphor EL, 90% saline). CBD and FEN were dissolved in the same control vehicle for comparison.
Animals were dosed (10 ml/kg) i.p. at 60 min for CBD and 30 min for FENS pre-treatment times, prior to MES and before plasma and brain sampling immediately post-MES test.
Here, doses were selected based on known ED50 and NOAELs for all the drugs and were: CBD-BOT [10, 30, 50, 70 and 100 mg/kg] and FEN [1, 2, 3, 5 and 10 mg/kg]. The number of animals in each of these groups were 10 (n=10), and 160 in total.
For Experiment B, in addition to the vehicle group, three dose groups were used for each of the treatments. Here, doses were selected based on analysis of the data obtained from Experiment A according to methods described for determination of isobolographic interactions. Doses as CBD/FEN combination were [20.9/2.5, 13.6/3.9 and 28.3/1.2 mg/kg]. The number of animals in each of these groups were 10 (n=10), and with individual CBD, FEN and VPA doses n=190 in total.
Electroconvulsions were produced by application of a fixed current intensity of 30 mA (0.2 sec duration) delivered via corneal electrodes. […] Mice were individually assessed for production of seizure determined by presence or absence of tonic hindlimb extension following current application.
Data were collected by an observer unaware of the treatment received by each animal.
The protective activities of CBD and FEN administered alone were evaluated and expressed as effective doses (ED50; mg/kg based on dose administered) and effective exposures (EE50; μM based on bioanalysis of brain samples) where EX50 is defined as the dose or brain exposure required to protect 50% of mice from MES-induced tonic seizures. CBD/FEN combinations were evaluated at 3 fixed ratios (1:3, 1:1 and 3:1) based on an EE50 derived from an assumption of linearly additive effects of EEs of the two drugs in combination.
For the three fixed-ratio CBD/FEN combinations (1:3, 1:1 and 3:1), calculations were based on Loewe's equation of additivity as follows; x/EE50(CBD)+y/EE50(FEN)=1; where x=the exposure of CBD and y=the exposure at which […], when co-administered with FEN, should theoretically exert the desired/additive 50% effect. Subsequently, CBD and FEN doses corresponding to 50% of respective EE50 were used for the CBD/FEN 1:1 ratio. Similarly, dose proportions were calculated for the CBD/FEN 1:3 and 3:1 ratios based on theoretical additive EE50.
The percentage protection of animals against MES-induced seizure were plotted against doses of AED alone (CBD or FEN) from Experiment A as log-probit linear regression analysis to derive ED50 and EE50.
Loewe's equation of additivity was used to determine fractions of EE50 in the three ratios 1:3, 1:1 and 3:1 for each of the combinations CBD/FEN. Graphs were plotted in Prism, for CBD and FEN to determine relationships versus these exposures to determine actual doses for the combination study (Experiment B).
DDI using these three-fixed dose-ratios of CBD/FEN was assessed using CalcuSyn v2.11 (Biosoft).

[5] = tested on: seizure frequency in patients with Dravet syndrome; conditions: low dose between 0.25 and 1.0 mg/kg/day; cited from earlier work
[6] = biological target: T2, human recombinant 5-HT2C receptor (Homo sapiens, UniProt P28335); assay: Inhibition of specific binding at human recombinant 5-HT2C receptors (FIG. 2B)
T2 sequence (P28335 33-458): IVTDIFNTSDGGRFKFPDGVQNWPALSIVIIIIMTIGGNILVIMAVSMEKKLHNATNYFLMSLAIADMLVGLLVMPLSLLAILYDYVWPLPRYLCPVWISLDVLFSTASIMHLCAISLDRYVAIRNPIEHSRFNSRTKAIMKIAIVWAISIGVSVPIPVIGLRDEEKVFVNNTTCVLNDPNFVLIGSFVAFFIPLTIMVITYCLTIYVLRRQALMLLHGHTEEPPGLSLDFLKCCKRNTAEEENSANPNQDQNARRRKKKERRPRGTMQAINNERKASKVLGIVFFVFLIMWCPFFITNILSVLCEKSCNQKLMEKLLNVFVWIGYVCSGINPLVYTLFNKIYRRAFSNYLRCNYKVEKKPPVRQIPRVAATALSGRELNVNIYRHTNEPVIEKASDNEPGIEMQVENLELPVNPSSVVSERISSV

T1 sequence (P41595 whole entry): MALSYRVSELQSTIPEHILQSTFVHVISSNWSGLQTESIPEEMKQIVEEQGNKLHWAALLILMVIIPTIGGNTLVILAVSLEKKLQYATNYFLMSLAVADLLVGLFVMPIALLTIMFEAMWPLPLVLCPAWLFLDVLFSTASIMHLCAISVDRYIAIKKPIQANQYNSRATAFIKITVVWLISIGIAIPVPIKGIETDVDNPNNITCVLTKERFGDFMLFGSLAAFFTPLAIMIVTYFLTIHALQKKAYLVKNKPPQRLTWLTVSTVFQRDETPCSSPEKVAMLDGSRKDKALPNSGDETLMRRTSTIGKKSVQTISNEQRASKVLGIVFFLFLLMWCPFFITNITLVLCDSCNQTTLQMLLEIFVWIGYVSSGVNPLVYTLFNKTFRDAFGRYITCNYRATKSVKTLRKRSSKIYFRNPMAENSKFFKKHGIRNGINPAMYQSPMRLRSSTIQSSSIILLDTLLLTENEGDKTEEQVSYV

C=C(C)[C@@H]1CCC(CO)=C[C@H]1c1c(O)cc(CCCCC)cc1O [7-OH-CBD, 7-hydroxy cannabidiol]
agonist activity at 5-HT2B receptors (human 5-HT2B receptor [1]): Neither CBD nor 7-OH-CBD possess agonist activity
Kb (human 5-HT2B receptor [2]): 690 nM
7-OH-CBD concentration relative to that achieved by CBD ([3]; clinical use of CBD): ~50%

CCNC(C)Cc1cccc(C(F)(F)F)c1 (stereo not drawn) [FEN, fenfluramine hydrochloride, reference compound]
Drug alone dose for the given effect ([4]; Effect 40%): 4.19 mg/kg
Dose Reduction Index (DRI) ([4]; Effect 40%): 3.639 fold
Drug alone dose for the given effect ([4]; Effect 80%): 8.26 mg/kg
Dose Reduction Index (DRI) ([4]; Effect 80%): 3.306 fold
Drug alone dose for the given effect ([4]; Effect 90%): 11.24 mg/kg
Dose Reduction Index (DRI) ([4]; Effect 90%): 2.921 fold
doses with statistically significant (p<0.05) anticonvulsant effect vs vehicle [4]: 10 mg/kg
effect on incidence of MES vs vehicle, drug alone [4]: no significant effect
ED50 [4]: 4.9 mg/kg
effect on seizure frequency [5]: reduce seizure frequency

C=C(C)[C@@H]1CCC(C)=C[C@H]1c1c(O)cc(CCCCC)cc1O [CBD, cannabidiol]
agonist activity at 5-HT2B receptors (human 5-HT2B receptor [1]): Neither CBD nor 7-OH-CBD possess agonist activity
Kb (human 5-HT2B receptor [2]): 3700 nM
Drug alone dose for the given effect ([4]; Effect 40%): 28.46 mg/kg
Dose Reduction Index (DRI) ([4]; Effect 40%): 1.006 fold
Drug alone dose for the given effect ([4]; Effect 80%): 56.55 mg/kg
Dose Reduction Index (DRI) ([4]; Effect 80%): 2.704 fold
Drug alone dose for the given effect ([4]; Effect 90%): 77.15 mg/kg
Dose Reduction Index (DRI) ([4]; Effect 90%): 5.690 fold
doses with statistically significant (p<0.05) anticonvulsant effect vs vehicle [4]: 50 to 100 mg/kg
effect on incidence of MES vs vehicle, drug alone [4]: no significant effect
ED50 [4]: 33.2 mg/kg
interaction with the 5-HT2C receptor [6]: does not act upon the 5-HT2C receptors
plasma concentration reached ([3]; human clinical trials in epilepsy, plasma): up to 330 ng/mL
molar plasma concentration ([3]; human clinical use of CBD, plasma): ~1 µM
